To fix the notation:
B1: Solute carrier family 22 member 1 (Rattus norvegicus) (protein)
chain: MPTVDDVLEQVGEFGWFQKQAFLLLCLISASLAPIYVGIVFLGFTPGHYCQNPGVAELSQRCGWSQAEELNYTVPGLGPSDEASFLSQCMRYEVDWNQSTLDCVDPLSSLVANRSQLPLGPCEHGWVYDTPGSSIVTEFNLVCGDAWKVDLFQSCVNLGFFLGSLVVGYIADRFGRKLCLLVTTLVTSVSGVLTAVAPDYTSMLLFRLLQGMVSKGSWVSGYTLITEFVGSGYRRTTAILYQMAFTVGLVGLAGVAYAIPDWRWLQLAVSLPTFLFLLYYWFVPESPRWLLSQKRTTRAVRIMEQIAQKNGKVPPADLKMLCLEEDASEKRSPSFADLFRTPNLRKHTVILMYLWFSCAVLYQGLIMHVGATGANLYLDFFYSSLVEFPAAFIILVTIDRIGRIYPIAASNLVTGAACLLMIFIPHELHWLNVTLACLGRMGATIVLQMVCLVNAELYPTFIRNLGMMVCSALCDLGGIFTPFMVFRLMEVWQALPLILFGVLGLTAGAMTLLLPETKGVALPETIEEAENLGRRKSKAKENTIYLQVQTGKSSST

One data set deals with T1, Solute carrier family 22 member 1 (Rattus norvegicus, UniProt Q63089).
T1 sequence (Q63089 whole entry): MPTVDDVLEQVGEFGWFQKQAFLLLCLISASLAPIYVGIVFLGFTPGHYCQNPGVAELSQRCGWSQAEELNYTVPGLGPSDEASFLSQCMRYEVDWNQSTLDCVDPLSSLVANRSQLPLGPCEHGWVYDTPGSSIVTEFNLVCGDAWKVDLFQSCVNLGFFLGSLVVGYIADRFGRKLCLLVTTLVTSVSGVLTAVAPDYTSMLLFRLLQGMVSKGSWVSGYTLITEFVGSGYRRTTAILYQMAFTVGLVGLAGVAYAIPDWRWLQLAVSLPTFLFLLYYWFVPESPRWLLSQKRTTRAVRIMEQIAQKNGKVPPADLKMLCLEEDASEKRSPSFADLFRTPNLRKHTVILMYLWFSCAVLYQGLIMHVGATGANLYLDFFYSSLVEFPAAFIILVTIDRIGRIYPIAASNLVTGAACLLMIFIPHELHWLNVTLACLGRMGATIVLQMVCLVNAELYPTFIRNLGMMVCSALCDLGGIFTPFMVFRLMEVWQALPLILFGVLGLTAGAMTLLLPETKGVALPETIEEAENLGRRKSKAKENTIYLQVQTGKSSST
The experiment in a line: TP_TRANSPORTER: inhibition of TEA uptake in Xenopus laevis oocytes. Format: functional, cell-based, Oocyte.
By Ki is commonly meant a measure of affinity in units of concentration, obtained from inhibition or displacement. As for `COc1cc(C(O)CNC(C)C)ccc1O` (stereo unspecified) [METIPRENALINE], affinity was put at a Ki of 43 µM.
Same read-out and setting: in the case of `COC(=O)[C@H]1[C@H]2C[C@@H]3c4[nH]c5cc(OC)ccc5c4CCN3C[C@H]2C[C@@H](OC(=O)c2cc(OC)c(OC)c(OC)c2)[C@@H]1OC` [RESERPINE] it was more than 20 µM; in that of `CC[n+]1c(CC2C=C(C)N=C(c3ccccc3)N2C)ccc2ccccc21` (stereo unspecified) [Cyanine-863], 0.13 µM.
Same read-out and setting: in the case of `CNC(=O)c1cccnc1` [NICOTINYL METHYLAMIDE] it was 1000 µM; in that of `C[C@]12C[C@H](O)[C@H]3[C@@H](CCC4=CC(=O)CC[C@@]43C)[C@@H]1CC[C@@H]2C(=O)CO` [CORTICOSTERONE], more than 10 µM.

Substrate in a further data set: CC[N+](CC)(CC)CC
As to the kind of experiment: cells, lysate or membranes named.
For orientation: Km means the concentration of substrate that gives half-maximal velocity. Take B1: the Km amounted to 95 µM.

The values above are taken from ChEMBL document CHEMBL2074281, “Drug excretion mediated by a new prototype of polyspecific transporter” (Nature, 1994).
